Each structure is given as a SMILES string.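 All cell lines were grown in 96-well plates and treated with compound for 48 hours. Abbreviation: GI50, concentration required for 50% inhibition of growth.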 Activity calls are given as the source filed them. Cut-off read from the data, not from the text of the source: active = GI50 up to about 1.1 µM and inactive = higher.

Some test systems named below: SNB-19; RPMI-8226; HCC 2998; ACHN; CCRF-CEM; SK-MEL-5; Malme-3M; OVCAR-8; NCI-H23; COLO 205; SF-268; EKVX; M14; SK-MEL-2; HT-29; CAKI-1; LOX IMVI; SR.
Holding throughout (experiment): inhibition of tumour cell growth, NCI panel, 48 h

For the compound `Cc1ccc(S(=O)(=O)C(C#N)c2nc3ccccc3nc2-n2ccnc2)cc1` (configuration not stated), the GI50 in the assay on SNB-19, with RPMI-8226, with HCC 2998, in the assay on ACHN, in the assay on CCRF-CEM and in the assay with SK-MEL-5 was > 100 µM (inactive) in each case. Moreover, the GI50 with Malme-3M, in the assay on OVCAR-8, with NCI-H23, in the assay on COLO 205, with SF-268 and in the assay with EKVX was > 100 µM (inactive) each time. The GI50 in the assay on M14, in the assay on SK-MEL-2 and in the assay with HT-29 was > 100 µM (inactive) throughout.

For the compound `O=c1c2ccccc2nc2n1-c1ccccc1SC2`, the GI50 in the assay on SNB-19 was > 100 µM (inactive); in the assay on RPMI-8226, 24.3 µM (inactive); in the assay with HCC 2998, 81.1 µM (inactive); in the assay on CAKI-1, > 100 µM (inactive); with ACHN, 54.7 µM (inactive); in the assay with CCRF-CEM, 38.8 µM (inactive). Moreover, the GI50 with SK-MEL-5 was 30.1 µM (inactive); with Malme-3M, 37.8 µM (inactive); in the assay with OVCAR-8 it was 38 µM (inactive); in the assay on NCI-H23, 38.1 µM (inactive); with COLO 205, 92.9 µM (inactive); in the assay on SF-268, 60 µM (inactive). In addition, the GI50 in the assay on EKVX was 25.5 µM (inactive); in the assay with M14, 50.5 µM (inactive); with SK-MEL-2, > 100 µM (inactive); with HT-29, > 100 µM (inactive); with LOX IMVI, > 100 µM (inactive).

With `COc1cc(C(=O)CC2(O)C(=O)Nc3c(Cl)cc(Cl)cc32)ccc1O` (configuration not stated), the GI50 in the assay with SNB-19 was 76.7 µM (inactive); in the assay with RPMI-8226 it was 24.4 µM (inactive); with HCC 2998, 31.5 µM (inactive); in the assay on CAKI-1, 56.2 µM (inactive); with ACHN, 57.1 µM (inactive); with CCRF-CEM, 36.6 µM (inactive). Besides, the GI50 in the assay on SK-MEL-5 is 27.6 µM (inactive); in the assay with Malme-3M, > 100 µM (inactive); with OVCAR-8, 63 µM (inactive); in the assay on NCI-H23, 59.2 µM (inactive); with COLO 205 it was 28.7 µM (inactive); in the assay on SF-268, 43.8 µM (inactive). Moreover, the GI50 is 94 µM (inactive) in the assay on EKVX; 66.7 µM (inactive) in the assay with M14; 87.1 µM (inactive) in the assay on SK-MEL-2; 29.4 µM (inactive) in the assay on HT-29; > 100 µM (inactive) in the assay with LOX IMVI.

For `O=[N+]([O-])c1ccc2nc3ccscc-3c2c1`, the GI50 in the assay on SNB-19 is 6.98 µM (inactive); with RPMI-8226, 7.08 µM (inactive); in the assay on HCC 2998, 15.2 µM (inactive); with CAKI-1 it was 13 µM (inactive); with ACHN it was 13.6 µM (inactive); with CCRF-CEM, 5 µM (inactive). The GI50 in the assay on SK-MEL-5 is 7.31 µM (inactive); in the assay with Malme-3M, 29 µM (inactive); in the assay on NCI-H23 it was 11.7 µM (inactive); with COLO 205, 18.5 µM (inactive); with SF-268, 14.7 µM (inactive); in the assay with EKVX, 9.93 µM (inactive). For the same compound, the GI50 in the assay on M14 was 16 µM (inactive); in the assay with SK-MEL-2 it was 6.75 µM (inactive); in the assay with HT-29 it was 22.6 µM (inactive); in the assay with LOX IMVI, 18.7 µM (inactive).

As to `C=CC1(C)/C(=N\O)C(C)(CC)C(=O)N1O` (configuration not stated), the GI50 in the assay with SNB-19, in the assay with CAKI-1, with SR, with ACHN, in the assay on CCRF-CEM and with SK-MEL-5 was > 100 µM (inactive) throughout. The GI50 in the assay on Malme-3M, in the assay on OVCAR-8, in the assay on NCI-H23, in the assay on COLO 205, with SF-268 and in the assay on EKVX was > 100 µM (inactive) each time. In addition, the GI50 with M14, in the assay on SK-MEL-2, with HT-29 and in the assay with LOX IMVI was > 100 µM (inactive) throughout.

As to `CN(C)CCn1cnc2sc3ccccc3c21`, the GI50 with SNB-19 was > 100 µM (inactive); in the assay on HCC 2998 it was > 100 µM (inactive); with CAKI-1, 95.3 µM (inactive); in the assay on ACHN, > 100 µM (inactive); with CCRF-CEM, > 100 µM (inactive); in the assay on SK-MEL-5 it was > 100 µM (inactive). Besides, the GI50 with Malme-3M, in the assay with OVCAR-8, with NCI-H23, with COLO 205, with SF-268 and in the assay with EKVX was > 100 µM (inactive) in each case. Besides, the GI50 with M14, in the assay on SK-MEL-2, in the assay with HT-29 and in the assay with LOX IMVI was > 100 µM (inactive) in each case.

As to `Cc1cccc(C)c1NC(=O)CCCC(=O)CC(=O)/C=C/c1ccccc1`, the GI50 in the assay on SNB-19, with RPMI-8226, in the assay with CAKI-1, in the assay with ACHN, in the assay on CCRF-CEM and with SK-MEL-5 was > 100 µM (inactive) each time. For the same compound, the GI50 in the assay on Malme-3M, in the assay with OVCAR-8, in the assay with NCI-H23, in the assay on COLO 205, in the assay on SF-268 and in the assay on M14 was > 100 µM (inactive) each time. In addition, the GI50 in the assay with SK-MEL-2, with HT-29 and in the assay with LOX IMVI was > 100 µM (inactive) each time.

`CN(C)CC(C)(C)C(=O)/C=C/c1ccccc1`: the GI50 with SNB-19 was 15.8 µM (inactive); in the assay on RPMI-8226 it was 12.2 µM (inactive); with CAKI-1 it was 15.8 µM (inactive); in the assay with ACHN, 17.9 µM (inactive); in the assay with CCRF-CEM, 3.39 µM (inactive); in the assay with SK-MEL-5, 16.2 µM (inactive). Further, the GI50 was 11.6 µM (inactive) in the assay on Malme-3M; 18 µM (inactive) with OVCAR-8; 19.9 µM (inactive) in the assay with NCI-H23; 13.3 µM (inactive) in the assay with COLO 205; 17.6 µM (inactive) in the assay with EKVX; 13.8 µM (inactive) in the assay on M14. Also, the GI50 with HT-29 was 15.8 µM (inactive); in the assay on LOX IMVI, 11.2 µM (inactive).

As to `O=C1/C(=C/c2cccc([N+](=O)[O-])c2)COc2ccccc21`, the GI50 in the assay with SNB-19 was 2.82 µM (inactive); in the assay with RPMI-8226, 1.01 µM (active); in the assay with CAKI-1 it was 5.33 µM (inactive); in the assay on ACHN, 5.13 µM (inactive); in the assay with CCRF-CEM, 1.53 µM (inactive); in the assay on SK-MEL-5 it was 2.32 µM (inactive). Moreover, the GI50 was 16.1 µM (inactive) with Malme-3M; 2.84 µM (inactive) in the assay on OVCAR-8; 6.76 µM (inactive) in the assay on NCI-H23; > 42.2 µM (inactive) with COLO 205; 8.99 µM (inactive) with SF-268; 25.6 µM (inactive) in the assay with EKVX. The GI50 with M14 was 1.83 µM (inactive); in the assay with SK-MEL-2, 6.1 µM (inactive); in the assay with HT-29, 2.36 µM (inactive); in the assay with LOX IMVI it was 1.8 µM (inactive).

Values taken from ChEMBL document CHEMBL1201862, “PubChem BioAssay data set” (2004).
